The text below walks through data of patent US20120064072A1, “Combination Cancer Therapy Comprising Administration of an EGFR Inhibitor and an IGF-1R Inhibitor” (priority 2009, published 2012).

The subject of assay [1] is H292 (NSCLC) human tumor xenograft. The assay can be described thus: Treatment beyond progression (TBP), H292 xenograft model. Type of assay: in vivo, mice.
Protocol: Anti-tumor efficacy was evaluated using mouse xenograft tumor models derived from GEO and H292 cells. Female athymic nude nu/nu CD-1 mice (6-8 wks, 22-29 g) were obtained from Charles River Laboratories (Wilmington, Mass.). Animals were allowed to acclimate for a minimum of one week prior to initiation of a study. Throughout the studies, animals were allowed sterile rodent chow and water ad libitum, and immunocompromised animals were maintained under specific pathogen free conditions. […] Tumor cells were harvested from cell culture flasks during exponential cell growth, washed twice with sterile PBS, counted and resuspended in PBS to a suitable concentration before s.c. implantation on the right flank of female nu/nu CD-1 mice. Tumors were established to 200+/−50 mm^3 in size before randomization into treatment groups of 8 mice each. Body weights were determined twice weekly along with tumor volume {V=[length×(width)^2]/2} measurements using Vernier calipers during the study. Tumor growth inhibition (% TGI) was determined by the following formula: % TGI={1−[(Tt/T0)/(Ct/C0)]/1-[C0/Ct]}×100. Tt is tumor volume of treated at time t; T0 is tumor volume of treated at time 0; Ct is tumor volume of control at time t; and C0 is tumor volume of control at time 0. […] Furthermore, we evaluated the effect of drug treatment on tumor growth delay (GD or T-C value), defined as the difference in time (days) required for the treated tumors (T) to reach 400% of the initial tumor volume compared with those of the control group (C). […] At the time of tumor progression on single agent erlotinib treatment mice were randomized into additional study groups of 8 mice each. Individual tumor volumes were calculated, as stated above, for all mice throughout the study and the time in days until each mouse doubled its tumor volume from the time of re-randomization was determined by linear regression analysis of the entire data set. Statistical evaluation of the data was determined by Kaplan-Meier Survival analysis.
In two separate experiments (FIGS. 9-11 and FIGS. 13-15), NCI-H292 cells were harvested from cell culture flasks during exponential cell growth, washed twice with sterile PBS, counted and resuspended in PBS to a suitable concentration before s.c. implantation on the right flank of female nu/nu CD-1 mice. Tumors were established to 200+/−50 mm^3 in size before randomization into vehicle control or erlotinib treatment groups.
Assay [2] concerns Erk. Briefly: H292 model Western blot analysis. The assay is classed as in vivo, human. The settings on record: H292, erlotinib 100 mg/kg per day eighteen days, FIG. 6. How it is done: (§1) In untreated H292 tumors and tumors treated with erlotinib (100 mg/kg per day) for eighteen days, the levels of total and phosphorylated Akt and Erk were measured and quantitated in terms of the ratio of phosphor to total protein in each sample and then plotted as compared to levels observed in vehicle control treated tumors (assumed to be 100%).

Assay [3] concerns Akt. The assay can be described thus: H292 model Western blot analysis. The assay is classed as in vivo, human. The settings on record: H292, erlotinib 100 mg/kg per day eighteen days, FIG. 6. How it is done:
as §1
Background: In western blotting, separated proteins are transferred to a membrane and probed.

The subject of assay [4] is Erk. The assay can be described thus: GEO model Western blot analysis. Type of assay: in vivo, human. The settings on record: erlotinib 100 mg/kg per day eighteen days, FIG. 2. How it is done:
(§2) In untreated GEO tumors and tumors treated with erlotinib (100 mg/kg per day) for eighteen days, the levels of total and phosphorylated Akt and Erk were measured and quantitated in terms of the ratio of phosphor to total protein in each sample and then plotted as compared to levels observed in vehicle control treated tumors (assumed to be 100%).

Assay [5] concerns Akt. Briefly: GEO model Western blot analysis. The assay is classed as in vivo, human. The settings on record: erlotinib 100 mg/kg per day eighteen days, FIG. 2. The procedure: as §2
Assay [6] has as its system pIGF-1R. Briefly: RTK array analysis, GEO model. Type of assay: in vivo, human. The settings on record: erlotinib 100 mg/kg per day for eighteen days, all treated tumors, FIG. 1. The procedure: (§3) In untreated GEO tumors and tumors treated with erlotinib (100 mg/kg per day) for eighteen days, the levels of pEGFR, pIGF-1R, and pIR were measured in terms of median pixel density, as shown in FIG. 1.

Assay [7] relates to pIR. Briefly: RTK array analysis, GEO model. The assay is classed as in vivo, human. The settings on record: erlotinib 100 mg/kg per day for eighteen days, all treated tumors, FIG. 1. The procedure:
as §3

Assay [8] deals with GEO (CRC) human tumor xenograft. The assay can be described thus: Treatment beyond progression (TBP), GEO xenograft model. The assay is classed as in vivo, mice. The settings on record: after progression on 18 days erlotinib, erlotinib maintenance 100 mg/kg per day, or with OSI-906 15 mg/kg per day added, FIG. 4. The procedure: The H292 (NSCLC) and GEO (CRC) human tumor xenograft models were used to evaluate the efficacy of EGFR inhibitor (erlotinib) maintenance therapy with and without the addition of IGF-1R inhibitor (OSI-906) therapy following response and subsequent progression on erlotinib monotherapy.
Anti-tumor efficacy was evaluated using mouse xenograft tumor models derived from GEO and H292 cells. Female athymic nude nu/nu CD-1 mice (6-8 wks, 22-29 g) were obtained from Charles River Laboratories (Wilmington, Mass.). Animals were allowed to acclimate for a minimum of one week prior to initiation of a study. […] Tumor cells were harvested from cell culture flasks during exponential cell growth, washed twice with sterile PBS, counted and resuspended in PBS to a suitable concentration before s.c. implantation on the right flank of female nu/nu CD-1 mice. […] Body weights were determined twice weekly along with tumor volume {V=[length×(width)^2]/2} measurements using Vernier calipers during the study. Tumor growth inhibition (% TGI) was determined by the following formula: % TGI={1−[(Tt/T0)/(Ct/C0)]/1-[C0/Ct]}×100. […] Furthermore, we evaluated the effect of drug treatment on tumor growth delay (GD or T-C value), defined as the difference in time (days) required for the treated tumors (T) to reach 400% of the initial tumor volume compared with those of the control group (C). […]

In assay [9] the test system is H292 (NSCLC) human tumor xenograft. The assay can be described thus: Frontline combination treatment, H292 xenograft model. The assay is classed as in vivo, mice. The settings on record: by 100 days.
Protocol: Anti-tumor efficacy was evaluated using mouse xenograft tumor models derived from GEO and H292 cells. Female athymic nude nu/nu CD-1 mice (6-8 wks, 22-29 g) were obtained from Charles River Laboratories (Wilmington, Mass.). Animals were allowed to acclimate for a minimum of one week prior to initiation of a study. Throughout the studies, animals were allowed sterile rodent chow and water ad libitum, and immunocompromised animals were maintained under specific pathogen free conditions. […] Tumor cells were harvested from cell culture flasks during exponential cell growth, washed twice with sterile PBS, counted and resuspended in PBS to a suitable concentration before s.c. implantation on the right flank of female nu/nu CD-1 mice. […] Body weights were determined twice weekly along with tumor volume {V=[length×(width)^2]/2} measurements using Vernier calipers during the study. Tumor growth inhibition (% TGI) was determined by the following formula: % TGI={1−[(Tt/T0)/(Ct/C0)]/1-[C0/Ct]}×100. […] Furthermore, we evaluated the effect of drug treatment on tumor growth delay (GD or T-C value), defined as the difference in time (days) required for the treated tumors (T) to reach 400% of the initial tumor volume compared with those of the control group (C). […] Statistical evaluation of the data was determined by Kaplan-Meier Survival analysis.
The subject of assay [10] is pIGF-1R. Briefly: RTK array analysis, H292 model. The assay is classed as in vivo, human. The settings on record: H292 tumors, erlotinib 100 mg/kg per day eighteen days, progressor tumors vs untreated or non-progressor; FIG. 5. The procedure:
(§4) In untreated H292 tumors and tumors treated with erlotinib (100 mg/kg per day) for eighteen days, the levels of pIGF-1R and pIR were measured in terms of pixel density normalized to phosphotyrosine loading control, as shown in FIG. 5. Tumors that initially responded and then progressed (progressor) show upregulation of both pIGF-1R and pIR as compared to untreated tumors or tumors that continue to respond to erlotinib treatment (non-progressor).

The test system of assay [11] is pIR. The assay can be described thus: RTK array analysis, H292 model. The assay is classed as in vivo, human. The settings on record: H292 tumors, erlotinib 100 mg/kg per day eighteen days, progressor tumors vs untreated or non-progressor; FIG. 5. The procedure:
as §4

Setting [12] is: OSI-906 50 mg/kg per day after taking off erlotinib.
Where [13] appears, read: tumors that do not progress on treatment.
The mark [14] stands for this setting: tumors that respond and then progress on treatment.

`C[C@]1(O)C[C@@H](c2nc(-c3ccc4ccc(-c5ccccc5)nc4c3)c3c(N)nccn32)C1` [OSI-906, cis-3-[8-amino-1-(2-phenyl-quinolin-7-yl)-imidazo[1,5-a]pyrazin-3-yl]-1-methyl-cyclobutanol]: in assay [1] (setting [12]), the “time to tumor doubling, switching to OSI-906 single agent versus maintaining erlotinib single agent” value is listed as “no statistical difference” and the “time to two tumor doublings, switching to OSI-906 single agent versus maintaining erlotinib single agent” value is given as “no statistical difference”.
In the case of `C#Cc1cccc(Nc2ncnc3cc(OCCOC)c(OCCOC)cc23)c1` [erlotinib, [6,7-bis(2-methoxyethoxy)-4-quinazolin-4-yl]-(3-ethynylphenyl)amine], the “phospho to total Erk versus vehicle control” value with Erk [2] (setting [13]) is on record as “continued inhibition”; with Erk [2] (setting [14]), “no longer inhibiting”; in the assay on Erk [4] (setting [13]), “continued inhibition”; with Erk [4] (setting [14]) it was “no longer inhibiting”. Also, the “phospho to total Akt versus vehicle control” value was “continued inhibition” in the assay on Akt [3] (setting [13]), “no longer inhibiting” in the assay on Akt [3] (setting [14]), “continued inhibition” in the assay on Akt [5] (setting [13]) and “no longer inhibiting” in the assay on Akt [5] (setting [14]). Moreover, the “median time to one doubling” value is 20.9 days in assay [1] (first trial, FIG. 10, Kaplan-Meier, after 28 days erlotinib 100 mg/kg per day, combination = erlotinib + OSI-906 15 or 10 mg/kg) and 20.9 days in assay [1] (second trial, FIG. 14, Kaplan-Meier). In addition, the “median time to two doublings” value in assay [1] (first trial, FIG. 11, Kaplan-Meier, combination = erlotinib + OSI-906 15 or 10 mg/kg) came to 41.5 days; in assay [1] (second trial, FIG. 15, Kaplan-Meier) it was 45.8 days. Also, the “level of pIGF-1R (median pixel density) compared to untreated tumors” value in the assay on pIGF-1R [6] was “upregulation”. Also, the “level of pIR (median pixel density) compared to untreated tumors” value in the assay with pIR [7] was “upregulation”. Besides, in assay [8], the “median time to tumor doubling following the re-sorting” value was “about 28 days”. For the same compound, the “mice that doubled their tumor volumes twice” value in assay [9] is listed as 7 of 8. Also, in the assay on pIGF-1R [10], the “level of pIGF-1R (pixel density normalized to phosphotyrosine loading control)” value is on record as “upregulation”. Besides, in the assay on pIR [11], the “level of pIR (pixel density normalized to phosphotyrosine loading control)” value is recorded as “upregulation”.
